Assay results taken from publication PMC3419191, “Identification of Novel Piperazinylquinoxaline Derivatives as Potent Phosphoinositide 3-Kinase (PI3K) Inhibitors” (PLoS ONE, 2012).

Assays:
HCT116 = assay: MTT assay, antiproliferative activity against HCT116 cells; assay type: cell-based; conditions: Homo sapiens, HCT-116, 72 h, mean of at least two determinations
Description: (§1) All synthesized target compounds were firstly tested for their antiproliferative activity against five human cancer cell lines, PC3, A549, HCT116, HL60, and KB, using MTT assay.
(§2) Human prostate cancer PC3 cells, lung adenocarcinoma epithelial A549 cells, colon cancer HCT116 cells, promyelocytic leukemia HL60 cells and nasopharyngeal carcinoma KB cells were obtained from the cell bank of the Institute of Biochemistry and Cell Biology, Chinese Academy of Sciences (Shanghai, China). The inhibitory activity of target compounds against tested cancer cell lines was measured using the MTT assay. PC3, A549, HCT116, HL60, and KB cancer cell lines were cultured in RPMI-1640 medium (Invitrogen, Carlsbad, CA, USA) with heat-inactivated 10% fetal bovine serum, penicillin (100 units/mL) and streptomycin (100 µg/mL) and incubated in an atmosphere with 20% oxygen and 5% carbon dioxide at 37°C. All tested compounds were dissolved in DMSO at concentrations of 10.0 mg/mL and diluted to appropriate concentrations. Cells were plated in 96-well plates for 24 h and subsequently treated with different concentrations of all tested compounds for 72 h. Viable cells were determined using 3-(4,5-dimethylthiazol-2-yl)-2,5-diphenyltetrazolium bromide assay kit (MTT, Sigma) according to operation instructions provided by the manufacturer. The concentration of drug causing 50% inhibition in absorbance compared with control cells (IC50) was calculated using the software of dose-effect analysis with microcomputers.

A549 = assay: MTT assay, antiproliferative activity against A549 cells; assay type: cell-based; conditions: Homo sapiens, 72 h, mean of at least two determinations
Description: as §1, §2

PC3 = assay: MTT assay, antiproliferative activity against PC3 cells; assay type: cell-based; conditions: Homo sapiens, PC-3, 72 h, mean of at least two determinations
Description: as §1, §2

HL60 = assay: MTT assay, antiproliferative activity against HL60 cells; assay type: cell-based; conditions: Homo sapiens, HL-60, 72 h, mean of at least two determinations
Description: as §1, §2

KB = assay: MTT assay, antiproliferative activity against KB cells; assay type: cell-based; conditions: Homo sapiens, 72 h, mean of at least two determinations
Description: as §1, §2

recombinant human PI3Kα = target: T1, recombinant human PI3Kα (Homo sapiens, UniProt P42336); assay: Competitive fluorescence polarization (FP) assay, inhibition of PI3Kα; assay type: biochemical; conditions: for Binding efficiency index (BEI): BEI = pIC50 (M)/MW (kDa), PI3Kα
T1 construct: purchased Echelon Biosciences (Salt Lake City, UT, USA) E-2000
T1 sequence (P42336 whole entry): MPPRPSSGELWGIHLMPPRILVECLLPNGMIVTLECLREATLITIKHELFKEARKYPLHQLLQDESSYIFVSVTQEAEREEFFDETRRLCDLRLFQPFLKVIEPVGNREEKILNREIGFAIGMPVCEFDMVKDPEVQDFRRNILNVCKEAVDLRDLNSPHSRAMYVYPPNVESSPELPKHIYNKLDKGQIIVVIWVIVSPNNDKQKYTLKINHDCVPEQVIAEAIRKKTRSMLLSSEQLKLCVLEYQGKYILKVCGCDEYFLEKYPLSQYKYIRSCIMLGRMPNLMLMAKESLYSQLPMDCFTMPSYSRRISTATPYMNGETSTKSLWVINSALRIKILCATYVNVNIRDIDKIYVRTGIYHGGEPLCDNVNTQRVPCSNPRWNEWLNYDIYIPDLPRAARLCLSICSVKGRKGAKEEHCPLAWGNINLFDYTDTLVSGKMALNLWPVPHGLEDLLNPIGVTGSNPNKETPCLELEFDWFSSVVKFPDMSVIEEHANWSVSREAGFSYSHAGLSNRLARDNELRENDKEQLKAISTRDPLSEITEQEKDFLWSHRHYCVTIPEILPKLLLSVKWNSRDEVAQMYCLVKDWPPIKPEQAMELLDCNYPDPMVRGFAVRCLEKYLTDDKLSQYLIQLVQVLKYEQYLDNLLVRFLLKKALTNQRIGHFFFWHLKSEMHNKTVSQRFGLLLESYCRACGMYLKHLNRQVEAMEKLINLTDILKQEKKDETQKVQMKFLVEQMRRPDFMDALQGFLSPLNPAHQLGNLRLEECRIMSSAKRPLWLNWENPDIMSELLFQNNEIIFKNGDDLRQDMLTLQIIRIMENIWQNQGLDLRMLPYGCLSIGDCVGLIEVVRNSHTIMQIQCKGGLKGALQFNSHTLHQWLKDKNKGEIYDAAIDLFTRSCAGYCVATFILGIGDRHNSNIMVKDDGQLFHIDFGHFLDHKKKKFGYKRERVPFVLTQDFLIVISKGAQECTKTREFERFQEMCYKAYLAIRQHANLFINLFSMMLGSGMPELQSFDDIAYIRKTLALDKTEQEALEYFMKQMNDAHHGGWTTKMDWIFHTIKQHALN
T1 sequence (P27986 whole entry partner): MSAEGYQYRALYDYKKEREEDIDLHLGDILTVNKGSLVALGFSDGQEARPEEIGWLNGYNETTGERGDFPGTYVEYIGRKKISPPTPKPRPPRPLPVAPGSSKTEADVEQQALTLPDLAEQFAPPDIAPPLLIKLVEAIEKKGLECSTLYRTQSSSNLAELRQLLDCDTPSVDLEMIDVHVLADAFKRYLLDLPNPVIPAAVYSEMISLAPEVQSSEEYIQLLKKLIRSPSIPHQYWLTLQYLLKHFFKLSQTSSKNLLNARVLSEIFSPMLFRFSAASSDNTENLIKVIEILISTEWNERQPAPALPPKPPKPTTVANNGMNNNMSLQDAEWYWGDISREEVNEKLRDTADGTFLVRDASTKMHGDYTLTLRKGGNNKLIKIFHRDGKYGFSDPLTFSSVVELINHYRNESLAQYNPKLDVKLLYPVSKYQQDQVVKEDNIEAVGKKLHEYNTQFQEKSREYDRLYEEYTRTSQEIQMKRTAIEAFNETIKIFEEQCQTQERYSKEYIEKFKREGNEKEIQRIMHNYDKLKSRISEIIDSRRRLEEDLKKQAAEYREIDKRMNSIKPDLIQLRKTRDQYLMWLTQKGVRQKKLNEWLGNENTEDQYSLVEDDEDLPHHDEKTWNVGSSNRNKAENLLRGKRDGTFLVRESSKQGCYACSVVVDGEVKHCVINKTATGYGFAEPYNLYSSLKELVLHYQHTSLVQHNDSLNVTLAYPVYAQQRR
Procedure: Selected compounds were then tested for their enzymatic inhibitory activity against PI3Kα using a competitive fluorescence polarization (FP) assay to determine the molecular target of synthesized compounds [21].
The PI3Kα inhibitory test was determined using a competitive fluorescence polarization kinase activity assay. PI3K fluorescence polarization assay kit (catalog No. K-1100) and recombinant human PI3Kα (catalog No. E-2000) were purchased from Echelon Biosciences (Salt Lake City, UT, USA). PI3K reactions were performed in 5 mM HEPES, Ph 7, 2.5 mM MgCl2, 10 mM DTT and 50 µM ATP, using diC8-phosphatidylinositol-4, 5-bisphosphate (PIP2) as the substrate, and the final reaction volumes were 10 µL. For evaluation of the PI3Kα inhibitory activity of target compounds, 50 ng enzyme and 10 µM substate were used per 10 µL reaction volume with the concentrations of inhibitors ranging from 3.2 nM to 10 µM. After incubating for 3 h at room temperature, reactions were quenched by adding chelators. A mixture of phosphoinositide binding protein was added and mixed, followed by the addition of a fluorophore-labeled phosphoinositide tracer. Samples were then mixed in 384-well black Corning nonbinding plates (Corning, NY, USA) and incubated in a dark environment for 1 h to equilibrate. Finally, polarization values were measure using red fluorophores with appropriate filters to determine the extent of enzyme activity in the reaction.

[1] = FP assay, 50 µM ATP, mean of at least two determinations

Structure (SMILES) | IC50 (HCT116) | IC50 (A549) | IC50 (PC3) | IC50 (HL60) | melting point | IC50 (KB) | IC50 (recombinant human PI3Kα; [1]) | Binding efficiency index (BEI) (recombinant human PI3Kα) | IC50 (recombinant human PI3Kα; as used for BEI, Table 5)
Cc1ccc(S(=O)(=O)N2CCN(c3nc4ccccc4nc3S(=O)(=O)c3ccccc3)CC2)cc1 [Compound 44, 2-(4-(4-Methylphenylsulfonyl)piperazin-1-yl)-3-(phenylsulfonyl)quinoxaline] | 7.49 µM | 24.3 µM | 2.19 µM | 6.4 µM | 161 to 163 °C | 3.08 µM | > 10 µM | – | –
Cc1ccc(S(=O)(=O)c2nc3ccccc3nc2N2CCN(C)CC2)cc1 [Compound 15, 2-(4-Methylpiperazin-1-yl)-3-(4-methylphenylsulfonyl)quinoxaline] | 1.68 µM | 2.4 µM | 0.84 µM | 0.69 µM | 127 to 130 °C | 0.47 µM | > 10 µM | – | –
CN1CCN(c2nc3ccccc3nc2S(=O)(=O)c2ccc(Br)cc2)CC1 [Compound 17, 2-(4-Methylpiperazin-1-yl)-3-(4-bromophenylsulfonyl)quinoxaline] | 2.31 µM | 5.18 µM | 1.01 µM | 0.28 µM | 141 to 142 °C | 0.87 µM | 4.25 µM | 12.0 | –

The next lines start with the values.

IC50 (HCT116) | IC50 (A549) | IC50 (PC3) | IC50 (HL60) | melting point | IC50 (KB) | IC50 (recombinant human PI3Kα; [1]) | Binding efficiency index (BEI) (recombinant human PI3Kα) | IC50 (recombinant human PI3Kα; as used for BEI, Table 5) | Structure (SMILES)
25.4 µM | 3.86 µM | 2.74 µM | 5.84 µM | 217 to 219 °C | 0.93 µM | 2.75 µM | 11.3 | – | O=C(c1ccc(Cl)cc1)N1CCN(c2nc3ccccc3nc2S(=O)(=O)c2ccccc2)CC1 [Compound 34, 2-(4-(4-Chlorobenzoyl)piperazin-1-yl)-3-(phenylsulfonyl)quinoxaline]
0.32 µM | 0.57 µM | 0.6 µM | 0.12 µM | 158 to 160 °C | 9.46 µM | 0.061 µM | 16.1 | 0.061 µM | CC1CN(c2nc3ccccc3nc2S(=O)(=O)c2ccc(Br)cc2)CCN1 (centres unmarked) [Compound 27, 2-(3-Methylpiperazin-1-yl)-3-(4-bromophenylsulfonyl)quinoxaline]
0.19 µM | 0.75 µM | 0.36 µM | 0.1 µM | 92 to 96 °C | 9.89 µM | 0.04 µM | 17.0 | – | O=S(=O)(c1ccc(Br)cc1)c1nc2ccccc2nc1N1CCNCC1 [Compound 22, 2-(Piperazin-1-yl)-3-(4-bromophenylsulfonyl)quinoxaline]
